Test results as given in paper PMC12172035, “The Thienopyrimidinone Gamhépathiopine Targets the QO Site of Plasmodium falciparum Cytochrome b” (ACS Infectious Diseases, 2025).

Target: T1, cytochrome b (Plasmodium falciparum, UniProt Q02768)
T1 construct: gene MT-CYB; native complex III in mitochondrial membrane fraction of P. falciparum 3D7 lysate; with complex III (cytochrome c1, Rieske iron-sulfur protein)
T1 sequence (Q02768 1-376): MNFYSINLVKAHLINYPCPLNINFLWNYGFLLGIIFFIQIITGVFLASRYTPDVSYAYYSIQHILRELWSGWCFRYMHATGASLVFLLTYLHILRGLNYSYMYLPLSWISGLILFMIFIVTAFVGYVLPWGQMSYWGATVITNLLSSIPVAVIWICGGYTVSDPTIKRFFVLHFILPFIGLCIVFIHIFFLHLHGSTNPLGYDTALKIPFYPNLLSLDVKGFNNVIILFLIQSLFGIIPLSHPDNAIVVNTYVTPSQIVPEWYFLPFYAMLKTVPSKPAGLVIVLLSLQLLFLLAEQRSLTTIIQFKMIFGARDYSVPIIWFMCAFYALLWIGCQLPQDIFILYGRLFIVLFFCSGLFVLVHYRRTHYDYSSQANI
Assay: complex III activity assay (decylubiquinol-driven cytochrome c reduction, […] nm) in P. falciparum membrane-enriched lysate; supported by resistance mutations in cytochrome b
Assay type: cell-based

## Cc1ccc(-c2cc3nc(NC(C)(C)C)[nH]c(=O)c3s2)cc1 [gamhépathiopine]
  inhibition at 20 µM: > 93%
